Test results from PubChem BioAssay (NCI).
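All cell lines were grown in 96-well plates and treated with compound for 48 hours. TGI is the concentration that stops growth completely.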

Tests used:
Assay in all cases: NCI-60 cell line screen, 48 h
CAKI-1 renal = system: CAKI-1 renal
COLO 205 colon = system: COLO 205 colon
EKVX NSCLC = system: EKVX NSCLC
HOP-62 NSCLC = system: HOP-62 NSCLC
HOP-92 NSCLC = system: HOP-92 NSCLC
HT29 colon = system: HT29 colon
OVCAR-5 ovarian = system: OVCAR-5 ovarian
RPMI-8226 leukemia = system: RPMI-8226 leukemia
SK-MEL-2 melanoma = system: SK-MEL-2 melanoma
SK-MEL-28 melanoma = system: SK-MEL-28 melanoma
SW-620 colon = system: SW-620 colon
TK-10 renal = system: TK-10 renal
U251 CNS = system: U251 CNS
UACC-62 melanoma = system: UACC-62 melanoma

CN(C)CCNC(=O)c1cccc2c(NC(CCC(N)=O)C(=O)O)c3ccccc3nc12 (configuration not stated)
TGI (CAKI-1 renal): > 100 µM
TGI (COLO 205 colon): 19.8 µM
TGI (EKVX NSCLC): 53.3 µM
TGI (HOP-62 NSCLC): 47.8 µM
TGI (HOP-92 NSCLC): > 100 µM
TGI (HT29 colon): 41.7 µM
TGI (OVCAR-5 ovarian): > 100 µM
TGI (RPMI-8226 leukemia): > 100 µM
TGI (SK-MEL-2 melanoma): 25.4 µM
TGI (SK-MEL-28 melanoma): 38.1 µM
TGI (SW-620 colon): > 100 µM
TGI (TK-10 renal): > 100 µM
TGI (U251 CNS): > 100 µM
TGI (UACC-62 melanoma): > 100 µM

COc1ccc2c3c1O[C@H](c1ccc(O)cc1)[C@H]3[N+](C)(C)CC2
TGI (CAKI-1 renal): > 100 µM
TGI (COLO 205 colon): > 100 µM
TGI (EKVX NSCLC): > 100 µM
TGI (HOP-62 NSCLC): > 100 µM
TGI (HOP-92 NSCLC): > 100 µM
TGI (HT29 colon): > 100 µM
TGI (OVCAR-5 ovarian): > 100 µM
TGI (RPMI-8226 leukemia): > 100 µM
TGI (SK-MEL-2 melanoma): > 100 µM
TGI (SK-MEL-28 melanoma): > 100 µM
TGI (SW-620 colon): > 100 µM
TGI (TK-10 renal): > 100 µM
TGI (U251 CNS): > 100 µM
TGI (UACC-62 melanoma): > 100 µM

C=CCC1(C)CCCN(Cc2ccccc2)C1=O (configuration not stated)
TGI (CAKI-1 renal): > 10 µM
TGI (COLO 205 colon): > 10 µM
TGI (EKVX NSCLC): > 10 µM
TGI (HOP-62 NSCLC): > 10 µM
TGI (HOP-92 NSCLC): > 10 µM
TGI (HT29 colon): > 10 µM
TGI (OVCAR-5 ovarian): > 10 µM
TGI (RPMI-8226 leukemia): > 10 µM
TGI (SK-MEL-2 melanoma): > 10 µM
TGI (SK-MEL-28 melanoma): > 10 µM
TGI (SW-620 colon): > 10 µM
TGI (TK-10 renal): > 10 µM
TGI (U251 CNS): > 10 µM
TGI (UACC-62 melanoma): > 10 µM

O=C1c2c(Br)sc(Br)c2[C@@H](NC(=O)C(F)(F)F)C1Br (some centres not stated)
TGI (CAKI-1 renal): 8.82 µM
TGI (COLO 205 colon): 4.02 µM
TGI (EKVX NSCLC): 11.6 µM
TGI (HOP-62 NSCLC): 28.2 µM
TGI (HOP-92 NSCLC): 6.69 µM
TGI (HT29 colon): 5.77 µM
TGI (OVCAR-5 ovarian): 24.4 µM
TGI (RPMI-8226 leukemia): 5.92 µM
TGI (SK-MEL-2 melanoma): 27.5 µM
TGI (SK-MEL-28 melanoma): 8.51 µM
TGI (SW-620 colon): > 21.9 µM
TGI (TK-10 renal): 30.5 µM
TGI (U251 CNS): 9.08 µM
TGI (UACC-62 melanoma): 14.6 µM

Clc1ccc2oc(CCc3ccccc3)nc2c1
TGI (CAKI-1 renal): > 100 µM
TGI (COLO 205 colon): > 100 µM
TGI (EKVX NSCLC): > 100 µM
TGI (HOP-62 NSCLC): > 100 µM
TGI (HOP-92 NSCLC): > 100 µM
TGI (HT29 colon): > 100 µM
TGI (OVCAR-5 ovarian): > 100 µM
TGI (RPMI-8226 leukemia): > 100 µM
TGI (SK-MEL-2 melanoma): > 100 µM
TGI (SK-MEL-28 melanoma): > 100 µM
TGI (SW-620 colon): > 100 µM
TGI (TK-10 renal): > 100 µM
TGI (U251 CNS): > 100 µM
TGI (UACC-62 melanoma): > 100 µM

CCCCCCCCCCCC[N+](CCCCCCCCCCCC)=C1SCCS1
TGI (CAKI-1 renal): 26.1 µM
TGI (COLO 205 colon): 20.4 µM
TGI (EKVX NSCLC): 26 µM
TGI (HOP-62 NSCLC): 30.5 µM
TGI (HOP-92 NSCLC): 23.1 µM
TGI (HT29 colon): 12.8 µM
TGI (OVCAR-5 ovarian): 25.1 µM
TGI (RPMI-8226 leukemia): 4.4 µM
TGI (SK-MEL-2 melanoma): 23.2 µM
TGI (SK-MEL-28 melanoma): 22.9 µM
TGI (SW-620 colon): 10.1 µM
TGI (TK-10 renal): 28.8 µM
TGI (U251 CNS): 13.7 µM
TGI (UACC-62 melanoma): 22.9 µM

c1ccc(CC2COC(c3cccs3)=N2)cc1 (configuration not stated)
TGI (CAKI-1 renal): > 100 µM
TGI (COLO 205 colon): > 100 µM
TGI (EKVX NSCLC): > 100 µM
TGI (HOP-62 NSCLC): > 100 µM
TGI (HOP-92 NSCLC): > 100 µM
TGI (HT29 colon): > 100 µM
TGI (OVCAR-5 ovarian): > 100 µM
TGI (RPMI-8226 leukemia): > 100 µM
TGI (SK-MEL-2 melanoma): > 100 µM
TGI (SK-MEL-28 melanoma): > 100 µM
TGI (SW-620 colon): > 100 µM
TGI (TK-10 renal): > 100 µM
TGI (U251 CNS): > 100 µM
TGI (UACC-62 melanoma): > 100 µM

CC(=O)OCC1OC(OCCCOP(=S)(OCCC#N)OCC2OC(n3ccc(N)nc3=O)C(OC(=O)c3ccccc3)C2OC(=O)c2ccccc2)C(OC(C)=O)C(OC(C)=O)C1OC(C)=O (configuration not stated)
TGI (CAKI-1 renal): > 100 µM
TGI (COLO 205 colon): > 100 µM
TGI (EKVX NSCLC): > 100 µM
TGI (HOP-62 NSCLC): > 100 µM
TGI (HOP-92 NSCLC): > 100 µM
TGI (HT29 colon): > 100 µM
TGI (OVCAR-5 ovarian): > 100 µM
TGI (RPMI-8226 leukemia): > 100 µM
TGI (SK-MEL-2 melanoma): > 100 µM
TGI (SK-MEL-28 melanoma): > 100 µM
TGI (SW-620 colon): > 100 µM
TGI (TK-10 renal): > 100 µM
TGI (U251 CNS): > 100 µM
TGI (UACC-62 melanoma): > 100 µM

O=C(O)c1ccccc1N=Nc1c(O)c(S(=O)(=O)O)cc2cc(S(=O)(=O)O)ccc12
TGI (CAKI-1 renal): > 100 µM
TGI (COLO 205 colon): > 100 µM
TGI (EKVX NSCLC): > 100 µM
TGI (HOP-62 NSCLC): > 100 µM
TGI (HOP-92 NSCLC): > 100 µM
TGI (HT29 colon): > 100 µM
TGI (OVCAR-5 ovarian): > 100 µM
TGI (RPMI-8226 leukemia): > 100 µM
TGI (SK-MEL-2 melanoma): > 100 µM
TGI (SK-MEL-28 melanoma): > 100 µM
TGI (SW-620 colon): > 100 µM
TGI (TK-10 renal): > 100 µM
TGI (U251 CNS): > 100 µM
TGI (UACC-62 melanoma): > 100 µM

N#CCCC1(CCC#N)CCCCCCCCC(CCC#N)(CCC#N)C(O)C1O (configuration not stated)
TGI (CAKI-1 renal): > 100 µM
TGI (COLO 205 colon): > 100 µM
TGI (EKVX NSCLC): > 100 µM
TGI (HOP-62 NSCLC): > 100 µM
TGI (HOP-92 NSCLC): > 100 µM
TGI (HT29 colon): > 100 µM
TGI (OVCAR-5 ovarian): > 100 µM
TGI (RPMI-8226 leukemia): 58.2 µM
TGI (SK-MEL-2 melanoma): > 100 µM
TGI (SK-MEL-28 melanoma): > 100 µM
TGI (SW-620 colon): > 100 µM
TGI (TK-10 renal): > 100 µM
TGI (U251 CNS): > 100 µM
TGI (UACC-62 melanoma): > 100 µM

CN(CCCNC(=O)c1cc(-c2ccccc2)nc2ccccc12)CCCNC(=O)c1cc(-c2ccccc2)nc2ccccc12
TGI (CAKI-1 renal): 22.7 µM
TGI (COLO 205 colon): 3.14 µM
TGI (EKVX NSCLC): 17.2 µM
TGI (HOP-62 NSCLC): 4.13 µM
TGI (HOP-92 NSCLC): 9.85 µM
TGI (HT29 colon): 3.46 µM
TGI (OVCAR-5 ovarian): 4.81 µM
TGI (RPMI-8226 leukemia): 10.6 µM
TGI (SK-MEL-2 melanoma): 3.67 µM
TGI (SK-MEL-28 melanoma): 3.27 µM
TGI (SW-620 colon): 3.38 µM
TGI (TK-10 renal): 14.9 µM
TGI (U251 CNS): 4.05 µM
TGI (UACC-62 melanoma): 4.31 µM

N#Cc1nc(C#N)n(S(=O)(=O)c2ccccc2)c1NS(=O)(=O)c1ccccc1
TGI (CAKI-1 renal): > 57.7 µM
TGI (COLO 205 colon): > 100 µM
TGI (EKVX NSCLC): > 100 µM
TGI (HOP-62 NSCLC): > 100 µM
TGI (HOP-92 NSCLC): > 100 µM
TGI (HT29 colon): > 100 µM
TGI (OVCAR-5 ovarian): > 100 µM
TGI (RPMI-8226 leukemia): > 100 µM
TGI (SK-MEL-2 melanoma): > 31.6 µM
TGI (SK-MEL-28 melanoma): > 100 µM
TGI (SW-620 colon): > 100 µM
TGI (TK-10 renal): > 100 µM
TGI (U251 CNS): > 100 µM
TGI (UACC-62 melanoma): > 100 µM

O=c1[nH]c2nc3ccccc3c(=O)n2/c1=C/c1ccco1
TGI (CAKI-1 renal): > 100 µM
TGI (COLO 205 colon): > 100 µM
TGI (EKVX NSCLC): > 100 µM
TGI (HOP-62 NSCLC): > 100 µM
TGI (HOP-92 NSCLC): > 100 µM
TGI (HT29 colon): > 100 µM
TGI (OVCAR-5 ovarian): > 100 µM
TGI (RPMI-8226 leukemia): > 100 µM
TGI (SK-MEL-2 melanoma): > 100 µM
TGI (SK-MEL-28 melanoma): > 100 µM
TGI (SW-620 colon): > 100 µM
TGI (TK-10 renal): > 100 µM
TGI (U251 CNS): > 100 µM
TGI (UACC-62 melanoma): > 100 µM
